# Reference: patent US20220106328A1, “HETEROCYCLIC COMPOUNDS” (Hoffmann-La Roche Inc., priority 2019, published 2022)
# Biological target: T1, MAGL (Homo sapiens, UniProt Q99685)
# T1 sequence (Q99685 1-303): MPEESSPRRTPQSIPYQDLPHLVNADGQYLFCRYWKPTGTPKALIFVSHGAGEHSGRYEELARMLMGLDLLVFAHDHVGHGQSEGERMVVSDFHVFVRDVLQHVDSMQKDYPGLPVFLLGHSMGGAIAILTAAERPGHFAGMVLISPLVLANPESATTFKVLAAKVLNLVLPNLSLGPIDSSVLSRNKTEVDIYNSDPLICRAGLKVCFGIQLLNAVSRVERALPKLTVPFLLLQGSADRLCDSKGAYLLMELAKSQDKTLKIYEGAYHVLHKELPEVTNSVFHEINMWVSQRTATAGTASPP
# Test: 2-AG assay (MAGL inhibitory activity; hydrolysis of 2-arachidonoylglycerol to arachidonic acid followed by mass spectrometry)
# Format: biochemical
# Settings: 8 μM 2-arachidonoylglycerol, 15 min pre-incubation, 30 min incubation at rt, RapidFire MS read-out
# Procedure: Compounds were profiled for MAGL inhibitory activity by determining the enzymatic activity by following the hydrolysis of the natural substrate 2-arachidonoylglycerol resulting in arachidonic acid, which can be followed by mass spectrometry. This assay is hereinafter abbreviated “2-AG assay”.
# A C18 SPE cartridge (G9205A) was used in an ACN/water liquid setup. […] The activity of the compounds was calculated based on the ratio of intensities [arachidonic acid/d8-arachidonic acid].
row,IC50,Structure (SMILES)
1,28 nM,"O=C1CO[C@H]2CCN(C(=O)N3CC(c4ccc(-c5ccc(F)cc5F)cc4)C3)C[C@@H]2N1 (single isomer, unassigned) [Example 14, (−)- or (+)-trans-6-[3-[4-(2,4-Difluorophenyl)phenyl]azetidine-1-carbonyl]-4,4a,5,7,8,8a-hexahydropyrido[4,3-b][1,4]oxazin-3-one]"
2,411 nM,"O=C1CO[C@H]2CCN(C(=O)N3CC(OCc4ccc(OC(F)(F)F)cc4)C3)C[C@@H]2N1 (single isomer, unassigned) [Example 23, (−)- or (+)-trans-6-[3-[[4-(Trifluoromethoxy)phenyl]methoxy]azetidine-1-carbonyl]-4,4a,5,7,8,8a-hexahydropyrido[4,3-b][1,4]oxazin-3-one]"
3,220 nM,"O=C1CO[C@@H]2CCN(C(=O)N3CC(OCc4ccc(C(F)(F)F)cc4Cl)C3)C[C@H]2N1 (single isomer, unassigned) [Example 20, (+)- or (−)-trans-6-[3-[[2-Chloro-4-(trifluoromethyl)phenyl]methoxy]azetidine-1-carbonyl]-4,4a,5,7,8,8a-hexahydropyrido[4,3-b][1,4]oxazin-3-one]"
4,118 nM,"O=C1CO[C@@H]2CCN(C(=O)N3CCC4(CC3)CC(Oc3ccc(C(F)(F)F)cc3F)C4)C[C@H]2N1 (single isomer, unassigned) [Example 26, (+)- or (−)-trans-6-[2-[2-Fluoro-4-(trifluoromethyl)phenoxy]-7-azaspiro[3.5]nonane-7-carbonyl]-4,4a,5,7,8,8a-hexahydropyrido[4,3-b][1,4]oxazin-3-one]"
5,58 nM,"O=C1CO[C@H]2CCN(C(=O)N3CC(c4ccc(CC(F)(F)F)cc4)C3)C[C@@H]2N1 (single isomer, unassigned) [Example 16, (−)- or (+)-trans-6-[3-[4-(2,2,2-Trifluoroethyl)phenyl]azetidine-1-carbonyl]-4,4a,5,7,8,8a-hexahydropyrido[4,3-b][1,4]oxazin-3-one]"
6,920 nM,"O=C1CO[C@@H]2CCN(C(=O)N3CC(OCc4ccc(OC(F)(F)F)cc4)C3)C[C@H]2N1 (single isomer, unassigned) [Example 22, (+)- or (−)-trans-6-[3-[[4-(Trifluoromethoxy)phenyl]methoxy]azetidine-1-carbonyl]-4,4a,5,7,8,8a-hexahydropyrido[4,3-b][1,4]oxazin-3-one]"
7,39 nM,"CC(C)(C)c1ccc(C2CN(C(=O)N3CCC4OCC(=O)NC4C3)C2)cc1 (single isomer, unassigned) [Example 2, (−)- or (+)-trans-6-[3-(4-tert-Butylphenyl)azetidine-1-carbonyl]-4,4a,5,7,8,8a-hexahydropyrido[4,3-b][1,4]oxazin-3-one]"
8,15 nM,"O=C1COC2CCN(C(=O)N3CC(c4ccc(C5(C(F)(F)F)CC5)cc4)C3)CC2N1 (single isomer, unassigned) [Example 4, (−)- or (+)-trans-6-[3-[4-[1-(Trifluoromethyl)cyclopropyl]phenyl]azetidine-1-carbonyl]-4,4a,5,7,8,8a-hexahydropyrido[4,3-b][1,4]oxazin-3-one]"
9,2010 nM,"O=C(N1CC(OCc2ccc(C(F)(F)F)cc2F)C1)N1CC[C@H]2OCCN[C@@H]2C1 (racemic) [Example 31, [3-[[2-Fluoro-4-(trifluoromethyl)phenyl]methoxy]azetidin-1-yl]-[rac-(4aR,8aR)-2,3,4,4a,5,7,8,8a-octahydropyrido[4,3-b][1,4]oxazin-6-yl]methanone]"
10,7 nM,"O=C1CO[C@H]2CCN(C(=O)N3CCC4(CC3)CC(Oc3ccc(C(F)(F)F)cc3F)C4)C[C@@H]2N1 (single isomer, unassigned) [Example 27, (−)- or (+)-trans-6-[2-[2-Fluoro-4-(trifluoromethyl)phenoxy]-7-azaspiro[3.5]nonane-7-carbonyl]-4,4a,5,7,8,8a-hexahydropyrido[4,3-b][1,4]oxazin-3-one]"
11,12 nM,"O=C1CO[C@H]2CCN(C(=O)N3CC4(CC(Cc5ccc(F)cc5F)C4)C3)C[C@@H]2N1 (single isomer, unassigned) [Example 18, (−)- or (+)-trans-6-[6-[(2,4-Difluorophenyl)methyl]-2-azaspiro[3.3]heptane-2-carbonyl]-4,4a,5,7,8,8a-hexahydropyrido[4,3-b][1,4]oxazin-3-one]"
12,32 nM,"O=C1CO[C@H]2CCN(C(=O)N3CC(c4ccc(Oc5ccccc5Cl)nc4)C3)C[C@@H]2N1 (single isomer, unassigned) [Example 19, (−)- or (+)-trans-6-[3-[6-(2-Chlorophenoxy)-3-pyridyl]azetidine-1-carbonyl]-4,4a,5,7,8,8a-hexahydropyrido[4,3-b][1,4]oxazin-3-one]"
13,7 nM,"O=C1CO[C@H]2CCN(C(=O)N3CC(c4ccc(Oc5ccccc5)cc4)C3)C[C@@H]2N1 (single isomer, unassigned) [Example 12, (−)- or (+)-trans-6-[3-(4-Phenoxyphenyl)azetidine-1-carbonyl]-4,4a,5,7,8,8a-hexahydropyrido[4,3-b][1,4]oxazin-3-one]"
14,93 nM,"O=C1CO[C@@H]2CCN(C(=O)N3CC(c4ccc(-c5ccc(F)cc5F)cc4)C3)C[C@H]2N1 (single isomer, unassigned) [Example 13, (+)- or (−)-trans-6-[3-[4-(2,4-Difluorophenyl)phenyl]azetidine-1-carbonyl]-4,4a,5,7,8,8a-hexahydropyrido[4,3-b][1,4]oxazin-3-one]"
15,5 nM,"O=C1CO[C@H]2CCN(C(=O)N3CCC(C(c4ccc(F)cc4)c4ccc(F)cc4)CC3)C[C@@H]2N1 (single isomer, unassigned) [Example 25, (−)- or (+)-trans-6-[4-[Bis(4-fluorophenyl)methyl]piperidine-1-carbonyl]-4,4a,5,7,8,8a-hexahydropyrido[4,3-b][1,4]oxazin-3-one]"
16,95 nM,"O=C1COC2CCN(C(=O)N3CC(c4ccc(C5(C(F)(F)F)CC5)cc4)C3)CC2N1 (single isomer, unassigned) [Example 3, (+)- or (−)-trans-6-[3-[4-[1-(Trifluoromethyl)cyclopropyl]phenyl]azetidine-1-carbonyl]-4,4a,5,7,8,8a-hexahydropyrido[4,3-b][1,4]oxazin-3-one]"
17,424 nM,"O=C1CO[C@@H]2CCN(C(=O)N3CC(c4ccc(OC(F)(F)F)c(Cl)c4)C3)C[C@H]2N1 (single isomer, unassigned) [Example 7, (+)- or (−)-trans-6-[3-[3-Chloro-4-(trifluoromethoxy)phenyl]azetidine-1-carbonyl]-4,4a,5,7,8,8a-hexahydropyrido[4,3-b][1,4]oxazin-3-one]"
18,24 nM,"O=C1CO[C@@H]2CCN(C(=O)N3CC4(CC(Cc5ccc(F)cc5F)C4)C3)C[C@H]2N1 (single isomer, unassigned) [Example 17, (+)- or (−)-trans-6-[6-[(2,4-Difluorophenyl)methyl]-2-azaspiro[3.3]heptane-2-carbonyl]-4,4a,5,7,8,8a-hexahydropyrido[4,3-b][1,4]oxazin-3-one]"
19,530 nM,"O=C1CO[C@H]2CCN(C(=O)N3CCC(c4cn(CCO)c5ccc(Cl)cc45)CC3)C[C@@H]2N1 (single isomer, unassigned) [Example 30, (−)- or (+)-trans-6-[4-[5-Chloro-1-(2-hydroxyethyl)indol-3-yl]piperidine-1-carbonyl]-4,4a,5,7,8,8a-hexahydropyrido[4,3-b][1,4]oxazin-3-one]"
20,47 nM,"O=C1CO[C@@H]2CCN(C(=O)N3CC(c4ccc(Oc5ccccc5)cc4)C3)C[C@H]2N1 (single isomer, unassigned) [Example 11, (+)- or (−)-trans-6-[3-(4-Phenoxyphenyl)azetidine-1-carbonyl]-4,4a,5,7,8,8a-hexahydropyrido[4,3-b][1,4]oxazin-3-one]"
21,2560 nM,"O=C1CO[C@@H]2CCN(C(=O)N3CCC(Cc4ccc(C(F)(F)F)cc4)CC3)C[C@H]2N1 (single isomer, unassigned) [Example 28, (+)- or (−)-trans-6-[4-[[4-(Trifluoromethyl)phenyl]methyl]piperidine-1-carbonyl]-4,4a,5,7,8,8a-hexahydropyrido[4,3-b][1,4]oxazin-3-one]"
22,143 nM,"O=C1COC2CCN(C(=O)N3CC(OCc4ccc(C(F)(F)F)cc4F)C3)CC2N1 (single isomer, unassigned) [Example 6, (−)- or (+)-trans-6-[3-[[2-Fluoro-4-(trifluoromethyl)phenyl]methoxy]azetidine-1-carbonyl]-4,4a,5,7,8,8a-hexahydropyrido[4,3-b][1,4]oxazin-3-one]"
23,1300 nM,"O=C1CO[C@H]2CCN(C(=O)N3CCC(Cc4ccc(C(F)(F)F)cc4)CC3)C[C@@H]2N1 (single isomer, unassigned) [Example 29, (−)- or (+)-trans-6-[4-[[4-(Trifluoromethyl)phenyl]methyl]piperidine-1-carbonyl]-4,4a,5,7,8,8a-hexahydropyrido[4,3-b][1,4]oxazin-3-one]"
24,56 nM,"O=C1CO[C@H]2CCN(C(=O)N3CC(c4ccc(OC(F)(F)F)c(Cl)c4)C3)C[C@@H]2N1 (single isomer, unassigned) [Example 8, (−)- or (+)-trans-6-[3-[3-Chloro-4-(trifluoromethoxy)phenyl]azetidine-1-carbonyl]-4,4a,5,7,8,8a-hexahydropyrido[4,3-b][1,4]oxazin-3-one]"
